Reference: the NIST ThermoML archive (doi:10.1021/je101156d)

Assay: mn = molality of the nth substance listed, in mol/kg
Conditions: 101.3 kPa, Liquid, Dip Cell

CC(CN1c2ccccc2Sc2ccccc21)N(C)C.Cl (stereo not given) [promethazine hydrochloride] + O
electrical conductivity [S/m]
Conditions | 293.15 K | 303.15 K | 313.15 K | 323.15 K
m1 = 0.00484 | 0.029 | 0.039 | 0.05 | 0.063
m1 = 0.00938 | 0.065 | 0.075 | 0.092 | 0.105
m1 = 0.0136 | 0.099 | 0.109 | 0.131 | 0.144
m1 = 0.0176 | 0.13 | 0.14 | 0.167 | 0.18
m1 = 0.0214 | 0.159 | 0.169 | 0.199 | 0.212
m1 = 0.025 | 0.184 | 0.194 | 0.229 | 0.242
m1 = 0.0284 | 0.208 | 0.218 | 0.257 | 0.27
m1 = 0.0316 | 0.23 | 0.24 | 0.285 | 0.298
m1 = 0.0346 | 0.251 | 0.261 | 0.309 | 0.322
m1 = 0.0375 | 0.271 | 0.281 | 0.332 | 0.345
m1 = 0.0402 | 0.289 | 0.299 | 0.353 | 0.366
m1 = 0.0429 | 0.307 | 0.317 | 0.376 | 0.389
m1 = 0.0453 | 0.327 | 0.337 | 0.395 | 0.408
m1 = 0.0477 | 0.336 | 0.346 | 0.413 | 0.426
m1 = 0.05 | 0.347 | 0.357 | 0.428 | 0.447
m1 = 0.0522 | 0.358 | 0.368 | 0.44 | 0.457
m1 = 0.0543 | 0.369 | 0.379 | 0.45 | 0.467
m1 = 0.0563 | 0.38 | 0.39 | 0.46 | 0.477
m1 = 0.0582 | 0.391 | 0.401 | 0.47 | 0.487
m1 = 0.06 | 0.402 | 0.412 | 0.48 | 0.497
m1 = 0.0618 | 0.41 | 0.42 | 0.488 | 0.505
m1 = 0.0635 | 0.417 | 0.427 | 0.496 | 0.513
m1 = 0.0651 | 0.424 | 0.434 | 0.504 | 0.52
m1 = 0.0667 | 0.431 | 0.441 | 0.512 | 0.527
m1 = 0.0682 | 0.438 | 0.448 | 0.52 | 0.534
m1 = 0.0696 | 0.445 | 0.455 | 0.528 | 0.54
m1 = 0.0711 | 0.452 | 0.462 | 0.536 | 0.546
m1 = 0.0724 | 0.459 | 0.469 | 0.542 | 0.552
m1 = 0.0737 | 0.466 | 0.476 | 0.548 | 0.557
m1 = 0.075 | 0.473 | 0.483 | 0.554 | 0.562
